Earlier results, collected in patent US20170065667A1, “METHODS FOR SYNCHRONIZATION OF ESTROUS CYCLES AND OVULATION FOR FIXED TIME ARTIFICIAL INSEMINATION IN CATTLE” (Parnell Technologies Pty Ltd., priority 2014, published 2017).

Test system: lactating dairy cows
Details: dinoprost 25 mg, cloprostenol 0.5 mg; cited from earlier work

For `CCCCC[C@H](O)/C=C/[C@@H]1[C@@H](C/C=C\CCCC(=O)O)[C@@H](O)C[C@H]1O` [dinoprost], the “percentage of cows with complete CL regression” value is listed as 80%.
